Assay results reported in US20250283872A1, “EXPRESSION SYSTEMS FOR THE ALPHA2ALPHA5BETA2 NICOTINIC ACETYLCHOLINE RECEPTOR AND METHODS OF USE THEREOF” (Janssen Pharmaceutica NV, priority 2021, published 2025).

Key:
α2α5β2 nAChR = α2α5β2 nAChR (Homo sapiens, UniProt P17787+P30532+Q15822)
Method: (§1) Then transfer the plate to 30° C. with 5% CO2 in a humidified atmosphere for 24-48 hours.

α2β2 nAChR = α2β2 nAChR (Homo sapiens, UniProt P17787+Q15822); settings: HEK293T cells; co-transfection with FAM163B or TMIE (plus SAT1+CHAT) versus SAT1+CHAT
Method: as §1

Sequence of α2α5β2 nAChR (Q15822 27-529): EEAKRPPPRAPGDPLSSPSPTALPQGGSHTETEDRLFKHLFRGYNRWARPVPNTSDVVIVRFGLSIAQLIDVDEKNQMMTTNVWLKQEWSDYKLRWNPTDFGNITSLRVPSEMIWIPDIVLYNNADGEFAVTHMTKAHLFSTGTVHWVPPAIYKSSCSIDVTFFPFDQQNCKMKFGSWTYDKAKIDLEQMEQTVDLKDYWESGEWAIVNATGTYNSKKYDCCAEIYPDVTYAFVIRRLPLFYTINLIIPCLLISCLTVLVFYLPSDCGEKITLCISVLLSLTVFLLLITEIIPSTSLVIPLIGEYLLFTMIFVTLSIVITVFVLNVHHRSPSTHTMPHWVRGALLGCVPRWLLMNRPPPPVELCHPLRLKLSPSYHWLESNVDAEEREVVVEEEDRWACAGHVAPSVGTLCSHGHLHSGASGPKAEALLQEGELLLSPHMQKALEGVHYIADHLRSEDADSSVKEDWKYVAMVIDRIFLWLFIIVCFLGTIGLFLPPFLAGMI
Sequence of α2α5β2 nAChR (P30532 23-468): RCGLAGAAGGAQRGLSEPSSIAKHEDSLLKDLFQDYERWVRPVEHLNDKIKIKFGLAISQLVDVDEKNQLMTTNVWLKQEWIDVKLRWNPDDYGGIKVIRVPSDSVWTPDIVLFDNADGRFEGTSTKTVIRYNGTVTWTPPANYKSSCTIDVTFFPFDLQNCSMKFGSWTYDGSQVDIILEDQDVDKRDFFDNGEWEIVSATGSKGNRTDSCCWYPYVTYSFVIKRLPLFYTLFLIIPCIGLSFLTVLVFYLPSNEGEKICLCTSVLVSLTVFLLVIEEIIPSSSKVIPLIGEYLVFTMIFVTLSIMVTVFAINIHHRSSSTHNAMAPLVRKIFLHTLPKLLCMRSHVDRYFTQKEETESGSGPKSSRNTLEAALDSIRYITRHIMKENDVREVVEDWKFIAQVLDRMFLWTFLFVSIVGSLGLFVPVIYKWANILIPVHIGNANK
Sequence of α2α5β2 nAChR (P17787 26-502): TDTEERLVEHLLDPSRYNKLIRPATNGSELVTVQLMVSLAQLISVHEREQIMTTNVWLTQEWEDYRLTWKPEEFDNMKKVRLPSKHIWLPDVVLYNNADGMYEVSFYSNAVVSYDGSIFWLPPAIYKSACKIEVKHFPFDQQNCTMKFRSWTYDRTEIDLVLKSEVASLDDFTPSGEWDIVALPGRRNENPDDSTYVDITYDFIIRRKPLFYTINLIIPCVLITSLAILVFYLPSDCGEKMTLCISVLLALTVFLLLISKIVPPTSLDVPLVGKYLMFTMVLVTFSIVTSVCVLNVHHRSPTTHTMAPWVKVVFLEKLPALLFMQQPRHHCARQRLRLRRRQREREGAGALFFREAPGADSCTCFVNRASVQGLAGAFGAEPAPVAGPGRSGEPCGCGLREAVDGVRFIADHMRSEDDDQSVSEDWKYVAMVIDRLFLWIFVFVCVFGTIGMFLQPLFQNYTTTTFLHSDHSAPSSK
Sequence of α2β2 nAChR (Q15822 27-529): as the sequence (Q15822 27-529) above
Sequence of α2β2 nAChR (P17787 26-502): as the sequence (P17787 26-502) above

CN1CCCC1c1cccnc1 (stereo not drawn) [nicotine, Nicotine]
nicotine potency (nicotine-evoked calcium flux, FIG. 2) (α2α5β2 nAChR; HEK293T cells, co-transfection with FAM163B or TMIE (plus SAT1+CHAT) versus SAT1+CHAT): left shifted
EC80 (nicotine-evoked α2α5β2 nAChR mediated calcium flux) (α2α5β2 nAChR; recombinant cells, Ca5 dye, FLIPR TETRA): 1000 nM
nicotine potency (nicotine-evoked calcium flux, FIG. 2) (α2β2 nAChR): left shifted
